± gives the expanded uncertainty stated by the source.
Conditions: Gas, double Helmholtz acoustic resonator

[C-]#[O+] [carbon monoxide]
Conditions | kinematic viscosity [m2/s] | speed of sound [m/s]
225 K, 250.04 kPa | 3.74e-06 ± 4.5e-08 | 305.59 ± 0.28
225 K, 371.9 kPa | 2.5e-06 ± 1.9e-07 | 305.42 ± 0.35
225 K, 499.99 kPa | 1.86e-06 ± 5e-08 | 305.4 ± 0.093
225 K, 560.56 kPa | 1.68e-06 ± 6e-08 | 305.34 ± 0.081
225 K, 743.07 kPa | 1.25e-06 ± 1.5e-08 | 305.24 ± 0.063
225 K, 750 kPa | 1.23e-06 ± 1.9e-08 | 305.26 ± 0.075
225 K, 934.61 kPa | 1e-06 ± 1.2e-08 | 305.14 ± 0.063
225 K, 1000 kPa | 9.4e-07 ± 1.1e-08 | 305.15 ± 0.063
225 K, 1141.5 kPa | 8.17e-07 ± 9.8e-09 | 305.06 ± 0.063
225 K, 1250 kPa | 7.36e-07 ± 1.3e-08 | 305.04 ± 0.099
225 K, 1345.6 kPa | 6.95e-07 ± 8.3e-09 | 304.99 ± 0.063
225 K, 1500 kPa | 6.19e-07 ± 7.4e-09 | 304.99 ± 0.063
225 K, 1581.5 kPa | 5.88e-07 ± 7.1e-09 | 304.94 ± 0.063
225 K, 1750 kPa | 5.32e-07 ± 6.4e-09 | 304.95 ± 0.063
225 K, 1787.1 kPa | 5.2e-07 ± 6.6e-09 | 304.91 ± 0.063
225 K, 2000 kPa | 4.66e-07 ± 8.4e-09 | 304.94 ± 0.063
225 K, 2016.1 kPa | 4.63e-07 ± 5.6e-09 | 304.91 ± 0.063
225 K, 2264 kPa | 4.14e-07 ± 5e-09 | 304.94 ± 0.063
225 K, 2454.7 kPa | 3.79e-07 ± 5e-09 | 304.96 ± 0.063
250 K, 221.65 kPa | 5.37e-06 ± 7.2e-07 | 322.56 ± 2.7
250 K, 401.55 kPa | 2.88e-06 ± 6.6e-08 | 322.4 ± 0.37
250 K, 587.83 kPa | 1.95e-06 ± 4.4e-08 | 322.43 ± 0.24
250 K, 791.25 kPa | 1.45e-06 ± 1.7e-08 | 322.51 ± 0.098
250 K, 982.55 kPa | 1.16e-06 ± 2.4e-08 | 322.58 ± 0.066
250 K, 1169.1 kPa | 9.78e-07 ± 1.4e-08 | 322.67 ± 0.11
250 K, 1392.3 kPa | 8.19e-07 ± 9.8e-09 | 322.79 ± 0.066
250 K, 1587.8 kPa | 7.19e-07 ± 1e-08 | 322.93 ± 0.066
250 K, 1808.2 kPa | 6.28e-07 ± 7.5e-09 | 323.08 ± 0.072
250 K, 2050.1 kPa | 5.56e-07 ± 6.8e-09 | 323.27 ± 0.066
250 K, 2241.5 kPa | 5.08e-07 ± 6.1e-09 | 323.44 ± 0.066
275 K, 250.64 kPa | 5.04e-06 ± 1.1e-06 | 338.34 ± 2.6
275 K, 286.53 kPa | 4.39e-06 ± 2.8e-07 | 338.19 ± 0.74
275 K, 465.9 kPa | 2.83e-06 ± 9.6e-08 | 338.32 ± 0.47
275 K, 500.41 kPa | 2.7e-06 ± 1e-07 | 338.48 ± 0.24
275 K, 652.16 kPa | 2.07e-06 ± 2.5e-08 | 338.54 ± 0.12
275 K, 750 kPa | 1.84e-06 ± 1.4e-07 | 338.76 ± 0.38
275 K, 832.04 kPa | 1.63e-06 ± 2e-08 | 338.75 ± 0.069
275 K, 1000 kPa | 1.37e-06 ± 5.6e-08 | 338.99 ± 0.24
275 K, 1045.4 kPa | 1.3e-06 ± 2.2e-08 | 338.99 ± 0.069
275 K, 1250 kPa | 1.11e-06 ± 4.2e-08 | 339.26 ± 0.23
275 K, 1252.2 kPa | 1.09e-06 ± 1.9e-08 | 339.22 ± 0.069
275 K, 1443.1 kPa | 9.45e-07 ± 1.1e-08 | 339.46 ± 0.069
275 K, 1500 kPa | 9.2e-07 ± 2.2e-08 | 339.57 ± 0.089
275 K, 1675 kPa | 8.12e-07 ± 9.7e-09 | 339.74 ± 0.069
275 K, 1750 kPa | 7.89e-07 ± 9.5e-09 | 339.89 ± 0.069
275 K, 1882.7 kPa | 7.23e-07 ± 8.7e-09 | 340.02 ± 0.069
275 K, 2000 kPa | 6.96e-07 ± 8.4e-09 | 340.23 ± 0.069
275 K, 2150.8 kPa | 6.33e-07 ± 7.6e-09 | 340.38 ± 0.069
275 K, 2364.7 kPa | 5.79e-07 ± 6.9e-09 | 340.69 ± 0.076
300 K, 252.56 kPa | 6.71e-06 ± 2.4e-07 | 353.44 ± 0.58
300 K, 501.19 kPa | 3.25e-06 ± 4.4e-08 | 353.74 ± 0.16
300 K, 709.53 kPa | 2.28e-06 ± 4.8e-07 | 354 ± 0.85
300 K, 1000 kPa | 1.64e-06 ± 2e-08 | 354.52 ± 0.086
300 K, 1178.1 kPa | 1.39e-06 ± 1.7e-08 | 354.78 ± 0.072
300 K, 1250 kPa | 1.31e-06 ± 1.6e-08 | 354.91 ± 0.072
300 K, 1374 kPa | 1.2e-06 ± 1.4e-08 | 355.09 ± 0.072
300 K, 1481.5 kPa | 1.12e-06 ± 1.3e-08 | 355.27 ± 0.072
300 K, 1500 kPa | 1.1e-06 ± 1.3e-08 | 355.32 ± 0.072
300 K, 1602.1 kPa | 1.03e-06 ± 1.2e-08 | 355.46 ± 0.072
300 K, 1730.3 kPa | 9.55e-07 ± 1.2e-08 | 355.67 ± 0.072
300 K, 1750 kPa | 9.47e-07 ± 1.1e-08 | 355.74 ± 0.072
300 K, 1868 kPa | 8.89e-07 ± 1.1e-08 | 355.91 ± 0.072
300 K, 2000 kPa | 8.32e-07 ± 1e-08 | 356.15 ± 0.14
300 K, 2005.3 kPa | 8.27e-07 ± 9.9e-09 | 356.15 ± 0.072
325 K, 303.08 kPa | 5.93e-06 ± 3.6e-07 | 367.79 ± 0.51
325 K, 515.56 kPa | 3.49e-06 ± 9.6e-08 | 368.11 ± 0.32
325 K, 732.01 kPa | 2.49e-06 ± 3.2e-08 | 368.52 ± 0.075
325 K, 943.23 kPa | 1.94e-06 ± 2.3e-08 | 368.91 ± 0.075
325 K, 1169.7 kPa | 1.57e-06 ± 1.9e-08 | 369.33 ± 0.082
325 K, 1401.2 kPa | 1.31e-06 ± 1.6e-08 | 369.77 ± 0.075
325 K, 1633.9 kPa | 1.12e-06 ± 1.4e-08 | 370.22 ± 0.075
325 K, 1908.7 kPa | 9.62e-07 ± 1.2e-08 | 370.77 ± 0.075
325 K, 2129.6 kPa | 8.63e-07 ± 1e-08 | 371.22 ± 0.075
325 K, 2413.1 kPa | 7.66e-07 ± 9.8e-09 | 371.82 ± 0.075
350 K, 342.4 kPa | 6.04e-06 ± 2.6e-07 | 381.63 ± 0.47
350 K, 544.1 kPa | 3.84e-06 ± 6.4e-08 | 382.06 ± 0.092
350 K, 775.52 kPa | 2.69e-06 ± 3.4e-08 | 382.52 ± 0.077
350 K, 1007.1 kPa | 2.06e-06 ± 2.5e-08 | 382.99 ± 0.1
350 K, 1245.1 kPa | 1.68e-06 ± 2e-08 | 383.51 ± 0.077
350 K, 1461.5 kPa | 1.43e-06 ± 1.7e-08 | 383.96 ± 0.078
350 K, 1735.1 kPa | 1.21e-06 ± 1.7e-08 | 384.56 ± 0.11
350 K, 1995.6 kPa | 1.05e-06 ± 1.3e-08 | 385.14 ± 0.078
350 K, 2208.2 kPa | 9.51e-07 ± 1.1e-08 | 385.62 ± 0.078
350 K, 2464.2 kPa | 8.55e-07 ± 1e-08 | 386.21 ± 0.078
375 K, 260.28 kPa | 8.45e-06 ± 1.2e-06 | 394.36 ± 1.7
375 K, 460.71 kPa | 4.99e-06 ± 1.7e-07 | 394.79 ± 0.87
375 K, 672.43 kPa | 3.42e-06 ± 8e-08 | 395.31 ± 0.095
375 K, 885.97 kPa | 2.63e-06 ± 3.1e-08 | 395.84 ± 0.08
375 K, 1102.9 kPa | 2.13e-06 ± 2.6e-08 | 396.34 ± 0.08
375 K, 1302.3 kPa | 1.81e-06 ± 2.2e-08 | 396.82 ± 0.08
375 K, 1537.5 kPa | 1.53e-06 ± 1.8e-08 | 397.37 ± 0.08
375 K, 1815.6 kPa | 1.3e-06 ± 1.5e-08 | 398.04 ± 0.08
375 K, 2026.2 kPa | 1.16e-06 ± 1.4e-08 | 398.56 ± 0.08
375 K, 2250.6 kPa | 1.05e-06 ± 1.3e-08 | 399.12 ± 0.081
375 K, 2518.2 kPa | 9.4e-07 ± 1.1e-08 | 399.8 ± 0.081
